From PubChem BioAssay AID248 (DTP/NCI, 2004)
Inconclusive results and toxic doses are left out. Rule as the data show it: active = T/C of 150% or more; inactive = T/C below 125%.

System: L1210 leukemia ip in BDF1 mice, survival T/C
Test: NCI In Vivo Anticancer Drug Screen. Data for tumor model L1210 Leukemia (intraperitoneal) in B6D2F1 (BDF1) mice
Conditions: endpoint: mean survival time, higher = longer survival
Summary of the method: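 Mice bearing the transplanted tumor received compound or vehicle. Survival of the treated group was divided by that of the vehicle-treated control group to give the ratio.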

[1] = dose: 100.0 mg/kg/injection, schedule: Q01DX001 (ip), vehicle: saline
[2] = dose: 200.0 mg/kg/injection, schedule: Q01DX001 (ip), vehicle: saline
[3] = dose: 400.0 mg/kg/injection, schedule: Q01DX001 (ip), vehicle: saline
[4] = dose: 50.0 mg/kg/injection, schedule: Q01DX001 (ip), vehicle: saline
[5] = dose: 100.0 mg/kg/injection, schedule: Q04DX003 (ip), vehicle: saline with Tween-80
[6] = dose: 200.0 mg/kg/injection, schedule: Q04DX003 (ip), vehicle: saline with Tween-80
[7] = dose: 400.0 mg/kg/injection, schedule: Q04DX003 (ip), vehicle: saline with Tween-80
[8] = dose: 100.0 mg/kg/injection, schedule: Q04DX003 (ip), vehicle: Klucel (hydroxypropylcellulose) (HPC)
[9] = dose: 200.0 mg/kg/injection, schedule: Q04DX003 (ip), vehicle: Klucel (hydroxypropylcellulose) (HPC)
[10] = dose: 400.0 mg/kg/injection, schedule: Q04DX003 (ip), vehicle: Klucel (hydroxypropylcellulose) (HPC)
[11] = dose: 50.0 mg/kg/injection, schedule: Q01DX001 (ip), vehicle: Klucel (hydroxypropylcellulose) (HPC)
[12] = dose: 100.0 mg/kg/injection, schedule: Q01DX009 (ip), vehicle: Klucel (hydroxypropylcellulose) (HPC)
[13] = dose: 200.0 mg/kg/injection, schedule: Q01DX009 (ip), vehicle: Klucel (hydroxypropylcellulose) (HPC)

Measured: T/C

Cc1cccc2ccc3cccc(C)c3c12
inactive: [1] 98 % of control | [2] 92 % of control | [3] 95 % of control

Cc1ccc(S(=O)(=O)OC2CCCC3CC(=O)CCC32C)cc1 (centres undefined)
inactive: [4] 101 % of control | dose: 100.0 mg/kg/injection, schedule: Q01DX001 (ip), vehicle: carboxymethylcellulose (CMC) 103 % of control | [1] 101 % of control | dose: 200.0 mg/kg/injection, schedule: Q01DX001 (ip), vehicle: carboxymethylcellulose (CMC) 105 % of control | [2] 95 % of control | dose: 400.0 mg/kg/injection, schedule: Q01DX001 (ip), vehicle: carboxymethylcellulose (CMC) 103 % of control | [3] 98 % of control

C=CC(=O)Nc1cccc(OC(=O)NC(C)C)c1
inactive: [5] 89 % of control | [6] 97 % of control | [7] 103 % of control

NC(N)=N/N=C/c1nccc2ccccc12
inactive: [4] 102 % of control | [1] 102 % of control

CCCC[P+](C)(CCCC)CCCC
inactive: dose: 8.8 mg/kg/injection, schedule: Q01DX Z (ip), vehicle: saline 98 % of control | dose: 13.3 mg/kg/injection, schedule: Q01DX Z (ip), vehicle: saline 93 % of control | dose: 20.0 mg/kg/injection, schedule: Q01DX Z (ip), vehicle: saline 86 % of control

CN(C)c1ccc(CN2CCCN(Cc3ccc(N(C)C)cc3)C2c2ccc(N(CCCl)CCCl)cc2)cc1
inactive: [8] 102 % of control | [9] 104 % of control | [10] 100 % of control

CCOC(=O)CC1=C(c2ccc(OC)cc2)c2ccc(OC)cc2C1=O
inactive: [11] 98 % of control | dose: 100.0 mg/kg/injection, schedule: Q01DX001 (ip), vehicle: Klucel (hydroxypropylcellulose) (HPC) 98 % of control | dose: 200.0 mg/kg/injection, schedule: Q01DX001 (ip), vehicle: Klucel (hydroxypropylcellulose) (HPC) 95 % of control

CCOc1cc(C2=NNc3n[nH]c(=S)n3N2)ccc1O
inactive: [12] 94 % of control | [8] 96 % of control | [13] 98 % of control | [9] 103 % of control | dose: 400.0 mg/kg/injection, schedule: Q01DX009 (ip), vehicle: Klucel (hydroxypropylcellulose) (HPC) 97 % of control | [10] 102 % of control

Cc1cc(O)c([N+](=O)[O-])c(=O)o1 (tested in a mixture with another compound)
inactive: dose: 100.0 mg/kg/injection, schedule: Q04DX002 (ip), vehicle: Klucel (hydroxypropylcellulose) (HPC) 108 % of control | dose: 200.0 mg/kg/injection, schedule: Q04DX002 (ip), vehicle: Klucel (hydroxypropylcellulose) (HPC) 97 % of control | dose: 400.0 mg/kg/injection, schedule: Q04DX002 (ip), vehicle: Klucel (hydroxypropylcellulose) (HPC) 87 % of control

N#C/C(=C\C=C\c1ccccc1)C(N)=O
inactive: dose: 50.0 mg/kg/injection, schedule: Q01DX009 (ip), vehicle: saline with Tween-80 102 % of control | dose: 100.0 mg/kg/injection, schedule: Q01DX009 (ip), vehicle: saline with Tween-80 96 % of control | [5] 96 % of control | dose: 200.0 mg/kg/injection, schedule: Q01DX009 (ip), vehicle: saline with Tween-80 101 % of control | [6] 100 % of control

CCCCCCCCCCCCCCCCCC(=O)CS(C)=O (centres undefined)
inactive: [8] 94 % of control | [9] 91 % of control | [10] 96 % of control

c1ccc(C(c2ccccc2)C2CSC2)cc1
inactive: dose: 50.0 mg/kg/injection, schedule: Q04DX002 (ip), vehicle: gum acacia 93 % of control | dose: 100.0 mg/kg/injection, schedule: Q04DX002 (ip), vehicle: gum acacia 100 % of control | dose: 200.0 mg/kg/injection, schedule: Q04DX002 (ip), vehicle: gum acacia 93 % of control

COc1ccccc1P(c1ccccc1OC)c1ccccc1OC
inactive: dose: 100.0 mg/kg/injection, schedule: Q01DX009 (ip), vehicle: saline 95 % of control | dose: 100.0 mg/kg/injection, schedule: Q04DX003 (ip), vehicle: saline 113 % of control | dose: 200.0 mg/kg/injection, schedule: Q01DX009 (ip), vehicle: saline 92 % of control | dose: 200.0 mg/kg/injection, schedule: Q04DX003 (ip), vehicle: saline 102 % of control | dose: 400.0 mg/kg/injection, schedule: Q01DX009 (ip), vehicle: saline 98 % of control | dose: 400.0 mg/kg/injection, schedule: Q04DX003 (ip), vehicle: saline 101 % of control

O=C(CBr)c1cccc2c1cc(Br)c1ccccc12
inactive: dose: 13.3 mg/kg/injection, schedule: Q01DX Z (ip), vehicle: methylcellulose (MC) 94 % of control | dose: 20.0 mg/kg/injection, schedule: Q01DX Z (ip), vehicle: methylcellulose (MC) 93 % of control | dose: 30.0 mg/kg/injection, schedule: Q01DX Z (ip), vehicle: methylcellulose (MC) 100 % of control

CCC1CCCCN1CCNc1ccc(CO)c2sc3ccccc3c(=O)c12 (centres undefined)
inactive: dose: 50.0 mg/kg/injection, schedule: Q01DX009 (ip), vehicle: Klucel (hydroxypropylcellulose) (HPC) 101 % of control | [12] 115 % of control | [13] 120 % of control

CC(=C(C#N)C#N)c1ccc(Cl)cc1
inactive: dose: 12.5 mg/kg/injection, schedule: Q01DX001 (ip), vehicle: Klucel (hydroxypropylcellulose) (HPC) 112 % of control | dose: 25.0 mg/kg/injection, schedule: Q01DX001 (ip), vehicle: Klucel (hydroxypropylcellulose) (HPC) 91 % of control | [11] 112 % of control | [8] 108 % of control

Cc1cc(N=CN(C)C)c2ccccc2n1
inactive: dose: 25.0 mg/kg/injection, schedule: Q01DX001 (ip), vehicle: saline with Tween-80 102 % of control | dose: 50.0 mg/kg/injection, schedule: Q01DX001 (ip), vehicle: saline with Tween-80 101 % of control | dose: 50.0 mg/kg/injection, schedule: Q04DX003 (ip), vehicle: saline with Tween-80 108 % of control | [5] 98 % of control

Clc1cccc(C[P+](c2ccccc2)(c2ccccc2)c2ccccc2)c1
inactive: dose: 1.5 mg/kg/injection, schedule: Q01DX009 (ip), vehicle: Klucel (hydroxypropylcellulose) (HPC) 91 % of control | dose: 3.0 mg/kg/injection, schedule: Q01DX009 (ip), vehicle: Klucel (hydroxypropylcellulose) (HPC) 94 % of control | dose: 6.0 mg/kg/injection, schedule: Q01DX009 (ip), vehicle: Klucel (hydroxypropylcellulose) (HPC) 88 % of control | dose: 12.5 mg/kg/injection, schedule: Q04DX003 (ip), vehicle: Klucel (hydroxypropylcellulose) (HPC) 98 % of control | dose: 25.0 mg/kg/injection, schedule: Q04DX003 (ip), vehicle: Klucel (hydroxypropylcellulose) (HPC) 98 % of control

Cc1ccnc(NS(=O)(=O)c2ccc(N=NC3SC(=S)NC3=O)cc2)n1 (centres undefined)
inactive: dose: 75.0 mg/kg/injection, schedule: Q01DX001 (ip), vehicle: saline 100 % of control | dose: 150.0 mg/kg/injection, schedule: Q01DX001 (ip), vehicle: saline 101 % of control | dose: 300.0 mg/kg/injection, schedule: Q01DX001 (ip), vehicle: saline 98 % of control

CC(C)CC(=O)OC1CCCCC1
inactive: [5] 106 % of control | [6] 101 % of control | [7] 95 % of control

CN(C)CCOC(=O)c1cc(CCBr)cc(CCBr)c1
inactive: dose: 2.5 mg/kg/injection, schedule: Q01DX009 (ip), vehicle: saline 92 % of control | dose: 5.0 mg/kg/injection, schedule: Q01DX009 (ip), vehicle: saline 97 % of control | dose: 10.0 mg/kg/injection, schedule: Q01DX009 (ip), vehicle: Klucel (hydroxypropylcellulose) (HPC) 95 % of control | dose: 10.0 mg/kg/injection, schedule: Q01DX009 (ip), vehicle: saline 94 % of control
